Results from patent US20190322676A1, “CERAMIDE GALACTOSYLTRANSFERASE INHIBITORS FOR THE TREATMENT OF DISEASE” (BioMarin Pharmaceutical Inc., priority 2016, published 2019).
Counter-ions that a name gives are not always drawn.

target: T1, human CGT (ceramide galactosyltransferase), CHO/CGT lysate (Homo sapiens, UniProt Q16880); experiment: CGT enzyme assay, RapidFire/MS/MS readout with 0.01% Tween added (Table 1 ranges with two asterisks **); assay type: biochemical; settings: CGT enzymatic assay; range with two asterisks (**): RapidFire/MS/MS method with 0.01% Tween added
T1 construct: Full-length human CGT cDNA was cloned into the BamH1/Xho1 site of pcDNA3.1 (+); expressed in transfected cells; host or cells: Chinese hamster ovary (CHO) cells; lysate prepared with M-PER
T1 sequence (Q16880 21-541): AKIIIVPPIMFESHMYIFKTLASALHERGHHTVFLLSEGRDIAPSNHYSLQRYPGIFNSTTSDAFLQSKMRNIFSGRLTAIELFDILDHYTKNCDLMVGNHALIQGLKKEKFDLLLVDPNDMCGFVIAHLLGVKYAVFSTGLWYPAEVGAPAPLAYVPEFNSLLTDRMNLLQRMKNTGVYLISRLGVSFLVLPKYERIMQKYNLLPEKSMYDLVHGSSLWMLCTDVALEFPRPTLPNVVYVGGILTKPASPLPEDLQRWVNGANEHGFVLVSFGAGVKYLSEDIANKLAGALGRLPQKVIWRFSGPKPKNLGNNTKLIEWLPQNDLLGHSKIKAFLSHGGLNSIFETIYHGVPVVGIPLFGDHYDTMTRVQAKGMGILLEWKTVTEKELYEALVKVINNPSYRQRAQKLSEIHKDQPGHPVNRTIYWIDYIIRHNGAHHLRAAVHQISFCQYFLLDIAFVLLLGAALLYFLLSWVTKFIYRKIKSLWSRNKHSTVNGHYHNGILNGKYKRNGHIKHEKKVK
Procedure, shortened: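 IC50s come from variable-slope dose-response fits of internal-standard-normalized C6-NBD-dihydro-galactosylceramide, measured by RapidFire/MS/MS (ESI negative). Reactions: 1 h, 37 °C, human CGT-expressing CHO lysate (4 μg), 0.001–50 μM compound, 10 μM NBD-dihydro-ceramide, 17.5 μM UDP-galactose, 0.5% DMSO, pH 7.2; 0.01% Tween 80 added for ** values.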

`N[C@H]1CC2CCC1N2C(=O)[C@@H](NS(=O)(=O)c1ccc2cc(OC3CCCC3)ccc2c1)C(F)(F)c1ccc(-c2ccc(Cl)cc2)cc1` (stereo partly drawn) [Compound 180-1, N-((2R)-3-((2S)-2-amino-7-azabicyclo[2.2.1]heptan-7-yl)-1-(4′-chloro-[1,1′-biphenyl]-4-yl)-1,1-difluoro-3-oxopropan-2-yl)-6-(cyclopentyloxy)naphthalene-2-sulfonamide] and `N[C@@H]1CC2CCC1N2C(=O)[C@H](NS(=O)(=O)c1ccc2cc(OC3CCCC3)ccc2c1)C(F)(F)c1ccc(-c2ccc(Cl)cc2)cc1` (stereo partly drawn) [Compound 180-3, N-((2S)-3-((2R)-2-amino-7-azabicyclo[2.2.1]heptan-7-yl)-1-(4′-chloro-[1,1′-biphenyl]-4-yl)-1,1-difluoro-3-oxopropan-2-yl)-6-(cyclopentyloxy)naphthalene-2-sulfonamide] fall in the same range of IC50: 1 to 10 µM for the first, 1 to 10 µM for the second.

First: NC1CCN(C(=O)[C@H](NS(=O)(=O)c2ccc3cc(OC4CCCC4)ccc3c2)C(F)(F)c2ccc(Cl)c(OC3CCCC3)c2)CC1 [Compound 170-2, (S)—N-(3-(4-aminopiperidin-1-yl)-1-(4-chloro-3-(cyclopentyloxy)phenyl)-1,1-difluoro-3-oxopropan-2-yl)-6-(cyclopentyloxy) naphthalene-2-sulfonamide trifluoroacetate]
Second: NC1CCN(C(=O)[C@@H](NS(=O)(=O)c2ccc3cc(OC4CCCC4)ccc3c2)C(F)(F)c2ccc(C3(C(F)(F)F)CC3)cc2)CC1 [Compound 182-1, (R)—N-(3-(4-aminopiperidin-1-yl)-1,1-difluoro-3-oxo-1-(4-(1-(trifluoromethyl)cyclopropyl)phenyl)propan-2-yl)-6-(cyclopentyloxy)naphthalene-2-sulfonamide trifluoroacetate]
The IC50 of the first is higher: 10 to 30 µM for the first, less than 1 µM for the second.

`CCOc1cc(-c2ccc(C(F)(F)[C@@H](NS(=O)(=O)c3ccc(OCC4CCCCC4)cc3)C(=O)N3CCC(N)CC3)cc2)ccc1Cl` [Compound 153-2, (S)—N-(3-(4-aminopiperidin-1-yl)-1-(4′-chloro-3′-ethoxy-[1,1′-biphenyl]-4-yl)-1,1-difluoro-3-oxopropan-2-yl)-4-(cyclohexylmethoxy) benzenesulfonamide trifluoroacetate] and `N[C@H]1CCN(C(=O)[C@H](NS(=O)(=O)c2ccc(OCC3CCCCC3)cc2)C(F)(F)c2ccc(-c3ccc(Cl)cc3)cc2)C1` [Compound 171-2, N—((S)-3-((S)-3-aminopyrrolidin-1-yl)-1-(4′-chloro-[1,1′-biphenyl]-4-yl)-1,1-difluoro-3-oxopropan-2-yl)-4-(cyclohexylmethoxy) benzenesulfonamide trifluoroacetate] fall in the same range of IC50: 30 to 100 µM for the first, 30 to 100 µM for the second.

First: CN(CCCN)C(=O)[C@H](NS(=O)(=O)c1ccc2cc(OC3CCCC3)ccc2c1)C(F)(F)c1ccc(-c2ccc(Cl)cc2)cc1 [Compound 157-2, (S)—N-(3-aminopropyl)-3-(4′-chloro-[1,1′-biphenyl]-4-yl)-2-((6-(cyclopentyloxy)naphthalene)-2-sulfonamido)-3,3-difluoro-N-methyl propanamide]
Second: O=C([C@@H](NS(=O)(=O)c1ccc2cc(OC3CCCC3)ccc2c1)C(F)(F)c1ccc(-c2ccc(Cl)cc2)cc1)N1CCC12CNC2 [Compound 191-1, (R)-N-(1-(4′-chloro-[1,1′-biphenyl]-4-yl)-1,1-difluoro-3-oxo-3-(1,6-diazaspiro[3.3]heptan-1-yl)propan-2-yl)-6-(cyclopentyloxy)naphthalene-2-sulfonamide]
The IC50 of the first is higher: 30 to 100 µM for the first, less than 1 µM for the second.

First: O=C([C@@H](NS(=O)(=O)c1ccc2cc(OC3CCCC3)ccc2c1)C(F)(F)c1ccc(-c2ccc(Cl)cc2)cc1)N1CC[C@@H]2CNC[C@@H]21 [Compound 192-3, N-((R)-1-(4′-chloro-[1,1′-biphenyl]-4-yl)-1,1-difluoro-3-((3aR,6aR)-hexahydropyrrolo[3,4-b]pyrrol-1(2H)-yl)-3-oxopropan-2-yl)-6-(cyclopentyloxy)naphthalene-2-sulfonamide]
Second: COc1cc(C(F)(F)[C@@H](NS(=O)(=O)c2ccc3cc(OC4CCCC4)ccc3c2)C(=O)N2C[C@H]3CNC[C@H]3C2)ccc1-c1ccc(Cl)cc1 [Compound 197-2, N-((S)-1-(4′-chloro-2-methoxy-[1,1′-biphenyl]-4-yl)-1,1-difluoro-3-((3aR,6aS)-hexahydropyrrolo[3,4-c]pyrrol-2(1H)-yl)-3-oxopropan-2-yl)-6-(cyclopentyloxy)naphthalene-2-sulfonamide]
The IC50 of the first is lower: less than 1 µM for the first, 10 to 30 µM for the second. The first is the more potent here.

First: N[C@@H]1CCN(C(=O)[C@H](NS(=O)(=O)c2ccc(OCC3CCCCC3)cc2)C(F)(F)c2ccc(Cl)cc2)C1 [Compound 189-2, N-((S)-3-((R)-3-aminopyrrolidin-1-yl)-1-(4-chlorophenyl)-1,1-difluoro-3-oxopropan-2-yl)-4-(cyclohexylmethoxy)benzenesulfonamide]
Second: N[C@@H]1CCN(C(=O)[C@H](NS(=O)(=O)c2ccc(OCC3CCCCC3)cc2)C(F)(F)c2ccc(-c3ccc(Cl)cc3)cc2)C1 [Compound 155-2, N—((S)-3-((R)-3-aminopyrrolidin-1-yl)-1-(4′-chloro-[1,1′-biphenyl]-4-yl)-1,1-difluoro-3-oxopropan-2-yl)-4-(cyclohexylmethoxy) benzenesulfonamide trifluoroacetate]
The IC50 of the first is higher: 10 to 30 µM for the first, 1 to 10 µM for the second.

Compared with `NC1CCN(C(=O)[C@H](NS(=O)(=O)c2ccc(CCOC3CCCC3)cc2)C(F)(F)c2ccc(-c3ccc(Cl)cc3)cc2)CC1` [Compound 185-2, (S)-N-(3-(4-aminopiperidin-1-yl)-1-(4′-chloro-[1,1′-biphenyl]-4-yl)-1,1-difluoro-3-oxopropan-2-yl)-4-(2-(cyclopentyloxy)ethyl)benzenesulfonamide], `O=C([C@@H](NS(=O)(=O)c1ccc(OCC2CCCCC2)cc1)C(F)(F)c1ccc(-c2ccc(Cl)cc2)cc1)N1C[C@H]2CNC[C@H]2C1` [Compound 179-1, N—((R)-1-(4′-chloro-[1,1′-biphenyl]-4-yl)-1,1-difluoro-3-((3aR,6aS)-hexahydropyrrolo[3,4-c]pyrrol-2(1H)-yl)-3-oxopropan-2-yl)-4-(cyclohexylmethoxy) benzenesulfonamide trifluoroacetate] is lower in IC50: 30 to 100 µM for the first, 1 to 10 µM for the second. The second is the more potent here.

First: NC1CCN(C(=O)[C@@H](NC(=O)C(=O)c2cc3ccc(OC4CCCC4)cc3s2)C(F)(F)c2ccc(-c3ccc(Cl)cc3)cc2)CC1 [Compound 175-1, (R)—N-(3-(4-aminopiperidin-1-yl)-1-(4′-chloro-[1,1′-biphenyl]-4-yl)-1,1-difluoro-3-oxopropan-2-yl)-2-(6-(cyclopentyloxy)benzo[b]thiophen-2-yl)-2-oxoacetamide trifluoroacetate]
Second: N[C@H]1[C@@H]2CC[C@H]1CN(C(=O)[C@@H](NS(=O)(=O)c1ccc3cc(OC4CCCC4)ccc3c1)C(F)(F)c1ccc(Cl)cc1)C2 [Compound 150-1, N—((R)-3-((1R,5S,8R)-8-amino-3-azabicyclo[3.2.1]octan-3-yl)-1-(4-chlorophenyl)-1,1-difluoro-3-oxopropan-2-yl)-6-(cyclopentyloxy)naphthalene-2-sulfonamide trifluoroacetate]
The IC50 of the first is higher: 10 to 30 µM for the first, less than 1 µM for the second.

Compound `NC1CCN(C(=O)[C@@H](NS(=O)(=O)c2ccc(OCC3CCCCC3)cc2)C(F)(F)c2ccc(C3(C(F)(F)F)CC3)cc2)CC1` [Compound 196-1, (R)-N-(3-(4-aminopiperidin-1-yl)-1,1-difluoro-3-oxo-1-(4-(1-(trifluoromethyl)cyclopropyl)phenyl)propan-2-yl)-4-(cyclohexylmethoxy)benzenesulfonamide] has an IC50 of 1 to 10 µM.
